Laboratory results taken from PubChem BioAssay (NCI).
Values joined by “and” are separate entries in the source; they are usually repeats but may differ in a detail not shown here. Identical values can stand only once.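 These data come from cells grown in 96-well plates and exposed to compound for 48 hours at five concentrations. GI50 is the concentration that inhibits growth by half. TGI is the concentration that stops growth completely.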

Legend:
Test in all cases: growth of human tumour cells (NCI), 48 h
T-47D breast = system: T-47D breast
OVCAR-8 ovarian = system: OVCAR-8 ovarian
SF-295 CNS = system: SF-295 CNS
EKVX NSCLC = system: EKVX NSCLC
COLO 205 colon = system: COLO 205 colon
ACHN renal = system: ACHN renal
HOP-92 NSCLC = system: HOP-92 NSCLC
NCI-H460 lung = system: NCI-H460 lung
BT-549 breast = system: BT-549 breast
HOP-62 NSCLC = system: HOP-62 NSCLC
NCI-H522 lung = system: NCI-H522 lung
DU-145 prostate = system: DU-145 prostate
SK-MEL-2 melanoma = system: SK-MEL-2 melanoma
MDA-N = system: MDA-N
KM20L2 colon = system: KM20L2 colon
DLD-1 colon = system: DLD-1 colon
DMS 114 small cell lung = system: DMS 114 small cell lung
XF 498 CNS = system: XF 498 CNS
SNB-78 CNS = system: SNB-78 CNS

Structure (SMILES)	TGI (T-47D breast) [µM]	TGI (OVCAR-8 ovarian) [µM]	TGI (SF-295 CNS)	TGI (EKVX NSCLC) [µM]	TGI (COLO 205 colon) [µM]	TGI (ACHN renal) [µM]	TGI (HOP-92 NSCLC)	TGI (NCI-H460 lung) [µM]	TGI (BT-549 breast) [µM]	TGI (HOP-62 NSCLC)	TGI (NCI-H522 lung) [µM]	TGI (DU-145 prostate) [µM]	TGI (SK-MEL-2 melanoma) [µM]	TGI (MDA-N) [µM]	TGI (KM20L2 colon) [µM]	TGI (DLD-1 colon) [µM]	TGI (DMS 114 small cell lung)	TGI (XF 498 CNS)	TGI (SNB-78 CNS) [µM]	GI50 (SNB-78 CNS)
C/C(=N\NC(=S)N1CCN(C)CC1)c1nc2ncccc2[nH]1	> 100	> 100	> 100 µM	> 100	> 100	> 100	> 100 µM	> 100	> 100	> 100 µM	> 100									
CN(Cc1cccc2ccccc12)Cc1cccc2ccccc12	72.2	> 100	> 100 µM	> 100	35.2	> 100		> 100	> 100	> 100 µM	45.4	> 100	31							
O=C(O)NCC1CCCCC1 (tested in a mixture with another compound)		31.7	50.3 µM	> 100		48.1	24.4 µM	26.1	72.6	33.8 µM	28	50.7	30.9	47.7						
N=[N+]=CC(=O)CCC(NC(=O)C(CCC(=O)C=[N+]=N)NC(=O)CCC(N)C(=O)O)C(=O)O (centres undefined)		> 100	> 100 µM	> 100	> 100		> 100 µM	> 100		> 100 µM	> 100		> 100		> 100	> 100	> 100 µM	> 100 µM	> 100	
C[n+]1c2ccccc2c(NC(CS)C(=O)O)c2ccccc21 (centres undefined)		61.2	77.7 µM	> 100	> 100	> 100	60.2 µM	> 100		73.5 µM	42.3		89.7		> 100	> 100	95.8 µM	33.9 µM	> 100	
CC(C)(C)C(=O)CP(=O)(O)O	> 100	> 100	> 100 µM	> 100	> 100	> 100	> 100 µM	> 100	> 100	> 100 µM	> 100	> 100	> 100	> 100						
C/C=C(\C)C(=O)OC1C(C)=C2C(C1OC(=O)CCCC)C(C)(OC(C)=O)CC(OC(=O)CCCC)C1(O)C2OC(=O)C1(C)O (centres undefined)	> 100	> 100	> 100 µM	> 100	2.58	> 100	> 100 µM	> 100	> 100	3.67 µM	7.02	> 100	3.96	> 100						
C[n+]1ccc(Nc2ccc(NC(=O)c3ccc(Nc4cc[n+](C)c5ccc([N+](=O)[O-])cc45)cc3[N+](=O)[O-])cc2)cc1		> 100	63.6 µM and 60 µM	> 92.6	> 100	> 100	81.7 µM and > 77.1 µM	> 100		84.9 µM and > 100 µM	> 100		> 100		> 100	> 100	27.2 µM and 41.5 µM	66.9 µM and > 63.2 µM	> 100	42.3 µM and > 100 µM
Nc1c(C(=O)Nc2ccc(C3=NCCN3)cc2)cccc1C(=O)Nc1ccc(C2=NCCN2)cc1		> 100	> 100 µM		> 100		> 100 µM	> 100			> 100		> 100		> 100	> 100	> 100 µM	> 100 µM	> 100	
Nc1ccc(S(=O)(=O)Nc2ccc(Nc3c4ccccc4nc4ccccc34)cc2)cc1	31.5	10	1.03 µM	14.7	14.9	0.149	4.84 µM	2.11	0.981	0.0805 µM	3.95	0.0188	15.9	22.8	10.6	16.6	1.9 µM	20.6 µM	26.2	
Cc1c(Cl)c(S(N)(=O)=O)cc2c1NC=NS2(=O)=O	> 100	> 100	> 100 µM	> 100	> 100	> 100	> 100 µM	> 100	> 100	> 100 µM	> 100	> 100		> 100						
Cc1cc2sc(C)[n+](CCCOS(=O)(=O)[O-])c2cc1C	> 100	> 100	> 100 µM	> 100	> 100	> 100	> 100 µM	> 100	> 100	> 100 µM	> 100	> 100	> 100	> 100						
COC(=O)c1cc2cc3c(c(O)c2c(=O)o1)O[C@@]1(Oc2c(O)c4c(c(O)c2[C@H]1OC1CC(OC)C(O)C(C)O1)C(=O)C=C(OC)C4=O)[C@H](O)C3 (some centres undefined)	7.2	10.7	> 29.6 µM	12.3	14.1	9.19	> 23.6 µM	> 21.6	4.93	5.37 µM	5.19	7.87	10.5	> 100						
O=C(NC1C=Nc2ccc([N+](=O)[O-])cc2NC1=O)c1cc(Cl)cc([N+](=O)[O-])c1 (centres undefined)		> 100	> 100 µM	> 100	> 100	> 100	> 100 µM	> 100		> 100 µM	67.8		> 100		> 100	> 100	84.2 µM	> 100 µM	> 100	
Cc1ccc(N=Nc2ccc(N)cc2C)c(S(N)(=O)=O)c1	> 100	> 100	> 100 µM	> 100	> 100	> 100	99.5 µM	> 100	> 100	> 100 µM	> 100	> 100	> 100	> 100						
